Target: CDK2 (human) (UniProt P24941)
Experiment: Enzyme Assay

| SMILES | IC50 [µM] |
| --- | --- |
| CC(C)n1nnc2c(NCc3ccccc3O)nc(N[C@@H]3CCCC[C@@H]3N)nc21 | 4.1 |
| CC(C)n1nnc2c(NCc3cccc(O)c3)nc(N[C@H]3CC[C@H](N)CC3)nc21 | 4.9 |
| CC(C)C(CO)Nc1nc(NCc2ccccc2)c2nnn(C(C)C)c2n1 (stereo not given) | 7.3 |
| CC(C)n1nnc2c(NCc3ccccc3O)nc(N[C@H]3CC[C@H](N)CC3)nc21 | 16.4 |
| CC(C)n1nnc2c(NCc3ccccc3)nc(N[C@H]3CC[C@H](N)CC3)nc21 | 11.3 |
| CCC(CO)Nc1nc(NCc2ccccc2)c2nnn(C(C)C)c2n1 (stereo not given) | 4.1 |
| CC(C)n1nnc2c(NCc3ccccc3)nc(NCCCO)nc21 | 100 |
| COc1ccc(CNc2nc(N[C@@H]3CCCC[C@@H]3N)nc3c2nnn3C(C)C)cc1O | 13.7 |
| O[C@H]1CC[C@H](Nc2nc(NCC3CCCCC3)c3nnn(Cc4ccccc4)c3n2)CC1 | > 100 |
| CC(C)C(CO)Nc1nc(NCc2ccccc2O)c2nnn(C(C)C)c2n1 (stereo not given) | 0.84 |
| CC(C)n1nnc2c(Nc3cccc(Cl)c3)nc(N[C@H]3CC[C@H](N)CC3)nc21 | 1.1 |
| CCC(CO)Nc1nc(NCc2ccccc2O)c2nnn(C(C)C)c2n1 (stereo not given) | 1.2 |
| CC(C)n1nnc2c(NCc3ccc(O)cc3)nc(N[C@H]3CC[C@H](N)CC3)nc21 | 2.8 |

Second part, the molecule after the results:

| IC50 [µM] | SMILES |
| --- | --- |
| > 100 | O[C@H]1CC[C@H](Nc2nc(Nc3cccc(Cl)c3)c3nnn(Cc4ccccc4)c3n2)CC1 |
| 2.3 | CCC(CO)Nc1nc(NCc2ccc(OC)c(O)c2)c2nnn(C(C)C)c2n1 (stereo not given) |
| 8 | CC(C)C(CO)Nc1nc(NCc2cccc(O)c2)c2nnn(C(C)C)c2n1 (stereo not given) |
| 20 | CC(C)C(CO)Nc1nc(Nc2cccc(Cl)c2)c2nnn(C(C)C)c2n1 (stereo not given) |
| > 100 | CCCCCCNc1nc(NC(CO)c2ccccc2)c2nnn(C(C)C)c2n1 (stereo not given) |
| 10 | CCC(CO)Nc1nc(NCc2cccc(O)c2)c2nnn(C(C)C)c2n1 (stereo not given) |
| > 100 | CC(C)n1nnc2c(NCc3ccccc3O)nc(NCc3ccccc3O)nc21 |

Source: the Kinase Knowledgebase extract (Sharma et al. 2016)
